{"source": "PubChem BioAssay AID256", "about": "(DTP/NCI, 2004)", "system": "CD2F1 mice, L1210 leukemia ip, survival T/C", "assay": "NCI In Vivo Anticancer Drug Screen. Data for tumor model L1210 Leukemia (intraperitoneal) in CD2F1 (CDF1) mice", "details": "higher = longer survival", "summary_of_the_method": "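Transplantable tumor in mice; compound-treated vs vehicle-treated groups. Read-out = treated/control ratio of the measured endpoint.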", "key": {"[1]": {"details": "endpoint: mean survival time, dose: 50.0 mg/kg/injection, schedule: Q01DX009 (ip), vehicle: saline with Tween-80"}, "[2]": {"details": "endpoint: mean survival time, dose: 100.0 mg/kg/injection, schedule: Q01DX009 (ip), vehicle: saline with Tween-80"}, "[3]": {"details": "endpoint: mean survival time, dose: 100.0 mg/kg/injection, schedule: Q04DX003 (ip), vehicle: saline with Tween-80"}, "[4]": {"details": "endpoint: mean survival time, dose: 100.0 mg/kg/injection, schedule: Q01DX001 (ip), vehicle: saline with Tween-80"}, "[5]": {"details": "endpoint: mean survival time, dose: 100.0 mg/kg/injection, schedule: Q01DX001 (ip), vehicle: saline"}, "[6]": {"details": "endpoint: mean survival time, dose: 12.5 mg/kg/injection, schedule: Q04DX003 (ip), vehicle: saline"}, "[7]": {"details": "endpoint: mean survival time, dose: 25.0 mg/kg/injection, schedule: Q04DX003 (ip), vehicle: saline"}}, "note": "“And” between values parts separate entries of the source, which are not always exact repeats. Equal entries are not always repeated. Inconclusive results and toxic doses are left out.", "data": [{"smiles": "C1CCC(C2CCCC[N-]2)[N-]C1.CSCCC([NH-])C(=O)O.[Cl][Pt]", "note": "(stereo not given)", "values": [{"measurement": "T/C", "setting": "endpoint: median survival time, dose: 10.0 mg/kg/injection, schedule: Q04DX003 (ip), vehicle: saline", "result": "101 % of control"}, {"measurement": "T/C", "setting": "endpoint: median survival time, dose: 20.0 mg/kg/injection, schedule: Q04DX003 (ip), vehicle: saline", "result": "101 % of control"}, {"measurement": "T/C", "setting": "endpoint: median survival time, dose: 40.0 mg/kg/injection, schedule: Q04DX003 (ip), vehicle: saline", "result": "94 % of control"}, {"measurement": "T/C", "setting": "endpoint: median survival time, dose: 80.0 mg/kg/injection, schedule: Q04DX003 (ip), vehicle: saline", "result": "101 % of control and 103 % of control"}, {"measurement": "T/C", "setting": "endpoint: median survival time, dose: 160.0 mg/kg/injection, schedule: Q04DX003 (ip), vehicle: saline", "result": "96 % of control"}, {"measurement": "T/C", "setting": "endpoint: median survival time, dose: 320.0 mg/kg/injection, schedule: Q04DX003 (ip), vehicle: saline", "result": "108 % of control"}]}, {"smiles": "Brc1nc(Br)c(Br)[nH]1", "values": [{"measurement": "T/C", "setting": "endpoint: mean survival time, dose: 25.0 mg/kg/injection, schedule: Q01DX009 (ip), vehicle: saline with Tween-80", "result": "86 % of control"}, {"measurement": "T/C", "setting": "[1]", "result": "95 % of control"}, {"measurement": "T/C", "setting": "[2]", "result": "92 % of control"}, {"measurement": "T/C", "setting": "[3]", "result": "100 % of control"}]}, {"smiles": "CNC(=S)NNC(=O)C(=O)NNC(=S)NC", "values": [{"measurement": "T/C", "setting": "[4]", "result": "98 % of control"}, {"measurement": "T/C", "setting": "endpoint: mean survival time, dose: 200.0 mg/kg/injection, schedule: Q01DX001 (ip), vehicle: saline with Tween-80", "result": "98 % of control"}, {"measurement": "T/C", "setting": "endpoint: mean survival time, dose: 400.0 mg/kg/injection, schedule: Q01DX001 (ip), vehicle: saline with Tween-80", "result": "97 % of control"}]}, {"smiles": "Cc1ccc(S(=O)(=O)/C=C/c2ccccc2)cc1", "values": [{"measurement": "T/C", "setting": "[5]", "result": "103 % of control"}, {"measurement": "T/C", "setting": "endpoint: mean survival time, dose: 100.0 mg/kg/injection, schedule: Q04DX003 (ip), vehicle: saline", "result": "96 % of control"}, {"measurement": "T/C", "setting": "endpoint: mean survival time, dose: 200.0 mg/kg/injection, schedule: Q01DX001 (ip), vehicle: saline", "result": "108 % of control"}, {"measurement": "T/C", "setting": "endpoint: mean survival time, dose: 200.0 mg/kg/injection, schedule: Q04DX003 (ip), vehicle: saline", "result": "93 % of control"}, {"measurement": "T/C", "setting": "endpoint: mean survival time, dose: 400.0 mg/kg/injection, schedule: Q01DX001 (ip), vehicle: saline", "result": "100 % of control"}, {"measurement": "T/C", "setting": "endpoint: mean survival time, dose: 400.0 mg/kg/injection, schedule: Q04DX003 (ip), vehicle: saline", "result": "87 % of control"}]}, {"smiles": "O=[N+]([O-])c1cccc(C[n+]2ccccc2C2OCCO2)c1", "values": [{"measurement": "T/C", "setting": "endpoint: mean survival time, dose: 6.25 mg/kg/injection, schedule: Q01DX009 (ip), vehicle: saline", "result": "101 % of control"}, {"measurement": "T/C", "setting": "endpoint: mean survival time, dose: 12.5 mg/kg/injection, schedule: Q01DX009 (ip), vehicle: saline", "result": "101 % of control"}, {"measurement": "T/C", "setting": "[6]", "result": "104 % of control"}, {"measurement": "T/C", "setting": "endpoint: mean survival time, dose: 25.0 mg/kg/injection, schedule: Q01DX009 (ip), vehicle: saline", "result": "96 % of control"}, {"measurement": "T/C", "setting": "[7]", "result": "114 % of control"}]}, {"smiles": "[Au].[NH-]C1CCCCC1[NH-].[NH-]C1CCCCC1[NH-]", "note": "(stereo not given)", "values": [{"measurement": "T/C", "setting": "endpoint: mean survival time, dose: 3.13 mg/kg/injection, schedule: Q04DX003 (ip), vehicle: saline", "result": "97 % of control"}, {"measurement": "T/C", "setting": "endpoint: mean survival time, dose: 6.25 mg/kg/injection, schedule: Q04DX003 (ip), vehicle: saline", "result": "96 % of control"}, {"measurement": "T/C", "setting": "[6]", "result": "97 % of control"}, {"measurement": "T/C", "setting": "[7]", "result": "100 % of control"}]}, {"smiles": "COC(=O)CC(CC(=O)c1ccccc1)c1ccccc1", "note": "(stereo not given)", "values": [{"measurement": "T/C", "setting": "endpoint: mean survival time, dose: 50.0 mg/kg/injection, schedule: Q01DX009 (ip), vehicle: distilled water + Tween-80", "result": "94 % of control"}, {"measurement": "T/C", "setting": "[1]", "result": "95 % of control and 98 % of control"}, {"measurement": "T/C", "setting": "endpoint: mean survival time, dose: 100.0 mg/kg/injection, schedule: Q01DX009 (ip), vehicle: distilled water + Tween-80", "result": "90 % of control"}, {"measurement": "T/C", "setting": "[2]", "result": "100 % of control and 106 % of control"}, {"measurement": "T/C", "setting": "endpoint: mean survival time, dose: 200.0 mg/kg/injection, schedule: Q01DX009 (ip), vehicle: distilled water + Tween-80", "result": "90 % of control"}, {"measurement": "T/C", "setting": "endpoint: mean survival time, dose: 200.0 mg/kg/injection, schedule: Q01DX009 (ip), vehicle: saline with Tween-80", "result": "97 % of control and 100 % of control"}, {"measurement": "T/C", "setting": "endpoint: mean survival time, dose: 400.0 mg/kg/injection, schedule: Q01DX009 (ip), vehicle: distilled water + Tween-80", "result": "90 % of control"}, {"measurement": "T/C", "setting": "endpoint: mean survival time, dose: 400.0 mg/kg/injection, schedule: Q01DX009 (ip), vehicle: saline with Tween-80", "result": "97 % of control and 98 % of control"}]}, {"smiles": "CC1(C[N+](C)(C)C)COC(C)(C)O1", "note": "(stereo not given)", "values": [{"measurement": "T/C", "setting": "endpoint: mean survival time, dose: 12.5 mg/kg/injection, schedule: Q04DX002 (ip), vehicle: saline", "result": "95 % of control"}, {"measurement": "T/C", "setting": "endpoint: mean survival time, dose: 25.0 mg/kg/injection, schedule: Q01DX001 (ip), vehicle: saline", "result": "98 % of control"}, {"measurement": "T/C", "setting": "endpoint: mean survival time, dose: 25.0 mg/kg/injection, schedule: Q04DX002 (ip), vehicle: saline", "result": "95 % of control"}, {"measurement": "T/C", "setting": "endpoint: mean survival time, dose: 50.0 mg/kg/injection, schedule: Q01DX001 (ip), vehicle: saline", "result": "96 % of control"}, {"measurement": "T/C", "setting": "endpoint: mean survival time, dose: 50.0 mg/kg/injection, schedule: Q04DX002 (ip), vehicle: saline", "result": "106 % of control"}, {"measurement": "T/C", "setting": "[4]", "result": "94 % of control"}, {"measurement": "T/C", "setting": "[5]", "result": "103 % of control"}, {"measurement": "T/C", "setting": "endpoint: mean survival time, dose: 100.0 mg/kg/injection, schedule: Q04DX002 (ip), vehicle: saline", "result": "95 % of control"}]}, {"smiles": "Nc1c(Cl)ncnc1NNC(=O)OCc1ccccc1", "values": [{"measurement": "T/C", "setting": "endpoint: mean survival time, dose: 100.0 mg/kg/injection, schedule: Q01DX001 (ip), vehicle: carboxymethylcellulose (CMC)", "result": "104 % of control"}, {"measurement": "T/C", "setting": "endpoint: mean survival time, dose: 200.0 mg/kg/injection, schedule: Q01DX001 (ip), vehicle: carboxymethylcellulose (CMC)", "result": "98 % of control"}, {"measurement": "T/C", "setting": "endpoint: mean survival time, dose: 400.0 mg/kg/injection, schedule: Q01DX001 (ip), vehicle: carboxymethylcellulose (CMC)", "result": "103 % of control"}]}, {"smiles": "CCCCCCCCOc1ccc(/C=N\\N=C\\c2ccc(OCCCCCCCC)cc2)cc1", "values": [{"measurement": "T/C", "setting": "[3]", "result": "94 % of control"}, {"measurement": "T/C", "setting": "endpoint: mean survival time, dose: 200.0 mg/kg/injection, schedule: Q04DX003 (ip), vehicle: saline with Tween-80", "result": "94 % of control"}, {"measurement": "T/C", "setting": "endpoint: mean survival time, dose: 400.0 mg/kg/injection, schedule: Q04DX003 (ip), vehicle: saline with Tween-80", "result": "94 % of control"}]}, {"smiles": "CCCCCCCCCCCCCCCCCC(=O)OC1C(CO)OC2C1Oc1nc(=N)ccn12", "note": "(stereo not given)", "values": [{"measurement": "T/C", "setting": "endpoint: mean survival time, dose: 12.5 mg/kg/injection, schedule: Q01DX009 (ip), vehicle: other", "result": "167 % of control"}, {"measurement": "T/C", "setting": "endpoint: mean survival time, dose: 25.0 mg/kg/injection, schedule: Q01DX009 (ip), vehicle: other", "result": "229 % of control"}, {"measurement": "T/C", "setting": "endpoint: mean survival time, dose: 50.0 mg/kg/injection, schedule: Q01DX009 (ip), vehicle: other", "result": "301 % of control"}, {"measurement": "T/C", "setting": "endpoint: mean survival time, dose: 100.0 mg/kg/injection, schedule: Q01DX009 (ip), vehicle: other", "result": "280 % of control"}, {"measurement": "T/C", "setting": "endpoint: mean survival time, dose: 200.0 mg/kg/injection, schedule: Q01DX009 (ip), vehicle: other", "result": "96 % of control"}]}]}
